According to PubChem BioAssay (NCI):
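1) Cells in 96-well plates. 2) Compound, 48 h, 5 concentrations. 3) Linear interpolation between surrounding doses. 4) Unreached endpoint = highest concentration. TGI marks complete inhibition of growth.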

Experiments:
Experiment in all cases: NCI anticancer screen, dose series, 48 h
[1] = test system: MOLT-4 leukemia
[2] = test system: SW-620 colon
[3] = test system: DMS 273 small cell lung
[4] = test system: HCC-2998 colon
[5] = test system: EKVX NSCLC
[6] = test system: KM20L2 colon
[7] = test system: RXF-631 renal
[8] = test system: M19-MEL melanoma
[9] = test system: LXFL 529 NSCLC
[10] = test system: HOP-18 NSCLC
[11] = test system: DMS 114 small cell lung
[12] = test system: SNB-75 CNS
[13] = test system: SNB-78 CNS
[14] = test system: DLD-1 colon
[15] = test system: NCI-H460 lung
[16] = test system: XF 498 CNS
[17] = test system: MCF7 breast

Compound	TGI [1]	TGI [2]	TGI [3]	TGI [4]	TGI [5]	TGI [6]	TGI [7]	TGI [8]	TGI [9]	TGI [10]	TGI [11]	TGI [12]	TGI [13]	TGI [14]	TGI [15]	TGI [16]	TGI [17]
CCOC(=O)[C@H]1Nc2ccc(Cl)cc2[C@H]2OCC[C@@H]12	> 100 µM	> 100 µM	> 100 µM	> 100 µM	> 100 µM	> 100 µM	> 100 µM	> 100 µM	> 100 µM	> 100 µM	> 100 µM	> 100 µM	> 100 µM	> 100 µM	> 100 µM	> 100 µM	
CCCc1c(C(=O)OCC)[nH]c(-c2ccc(-c3[nH]c(C(=O)OCC)c(CCC)c3C(=O)OCC)o2)c1C(=O)OCC	> 100 µM	> 100 µM	> 100 µM	> 100 µM	> 100 µM	> 100 µM		> 100 µM	> 100 µM	> 100 µM	> 100 µM	> 100 µM	> 100 µM	> 100 µM	> 100 µM	> 100 µM	
CC1(Br)C(=O)NC(=O)N(C2CC(N=[N+]=[N-])C(CO)O2)C1N=[N+]=[N-] (centres undefined)	> 100 µM	> 100 µM	> 100 µM	> 100 µM	> 100 µM	> 100 µM	> 100 µM	> 100 µM	> 100 µM		> 100 µM	> 100 µM	> 100 µM	> 100 µM	> 100 µM	> 100 µM	
Cc1ccc2c(c1)SC(c1cc3c(cc1Br)OCO3)S2 (centres undefined)	> 31.6 µM	> 100 µM	> 31.6 µM	> 31.6 µM	> 31.6 µM	> 31.6 µM		> 31.6 µM	> 31.6 µM	> 31.6 µM	> 31.6 µM	6.73 µM	> 31.6 µM	> 31.6 µM	> 31.6 µM	> 100 µM	
COc1ccc2nc(NC(=O)C(=O)C(C(=O)c3ccccc3-c3ccccc3)C3OC(=O)c4ccccc43)sc2c1 (centres undefined)	89.5 µM	50.1 µM		29.1 µM	45.9 µM	50.1 µM	71.6 µM	31 µM	26.3 µM		37.2 µM	35.1 µM	> 100 µM	40.9 µM	50.2 µM	45.7 µM	
CC[N+]1(C)CCC(O)(c2ccccc2)C(C(=O)c2ccccc2)C1 (centres undefined)	11.3 µM	4.58 µM	47.1 µM	49.8 µM	43.4 µM	44.5 µM		36 µM	23.6 µM	31 µM	44.3 µM	24.3 µM		27.2 µM	43 µM		9.6 µM
Cc1nc2ccccc2c(=O)n1NC(=S)Nc1cccc(Cl)c1	> 100 µM	> 100 µM	> 100 µM					> 100 µM	> 100 µM	> 100 µM		> 100 µM		> 100 µM	> 100 µM		
CC#Cc1cc2c(cc1O)CC[C@@H]1[C@@H]2CC[C@]2(C)[C@@H](O)CC[C@@H]12	17.2 µM	11.1 µM		19.2 µM	26 µM							27.6 µM			20.2 µM		64.3 µM
CC(C)(C)CC(C)(C)N=C(N)NO	> 100 µM	> 100 µM		> 100 µM	> 100 µM							> 100 µM			> 100 µM		> 100 µM
COc1ccc(/C=C2\SC(c3ccc(OC)cc3)N(NC(=O)Cc3ccccc3)C2=O)cc1 (centres undefined)	> 100 µM	> 100 µM	> 100 µM					> 100 µM	> 100 µM	> 100 µM	> 100 µM	> 100 µM		> 100 µM	> 100 µM		
O=C(O)Cc1cccc2c1OC(c1ccccc1)C(C(=O)c1ccccc1)C2=O (centres undefined)	> 100 µM	> 100 µM		59.7 µM	> 100 µM							51.3 µM			> 100 µM		> 100 µM
CN(C)c1nc(=NCc2cccs2)ss1	> 6.29 µM	> 10 µM		> 10 µM	> 10 µM							> 10 µM			> 10 µM		> 10 µM
O=C(Nc1nc2ccccc2n1Cc1ccc(Cl)cc1)NC12CC3CC(CC(C3)C1)C2	> 100 µM	> 100 µM	34.7 µM	> 100 µM	> 100 µM	> 100 µM		> 100 µM	72 µM	85.4 µM	90.8 µM	22.9 µM		> 100 µM	> 100 µM	53.2 µM	
OCc1ccc2c(c1)CC1(C2)Cc2cc3c(cc2C1)CCC3	> 100 µM	> 31.6 µM		> 100 µM	> 100 µM							8.18 µM			> 100 µM		> 100 µM
CC(C)(C)OC(=O)NC(Cc1ccc(OCc2ccccc2)cn1)C(=O)NCc1ccccc1 (centres undefined)	42 µM	> 100 µM		> 100 µM	99.3 µM							78.5 µM			69.7 µM		97.9 µM
S=C(N/N=C(/c1ccccc1)c1ccccn1)Nc1ccc(Cl)cc1	> 13.8 µM	11.1 µM		10.9 µM	15.5 µM							8.84 µM			5.53 µM		7.16 µM
Cc1nc(-c2nc(C)c(C(=O)NN(C)C)s2)sc1C(=O)NN(C)C	> 100 µM		38.9 µM	> 100 µM	> 100 µM	> 100 µM		> 100 µM	> 100 µM	> 100 µM		> 100 µM	> 100 µM	> 100 µM	> 100 µM	> 100 µM	
Cn1c(=O)c2c(nc(N)n2C2OC(CO)C(O)C2O)n(C)c1=O (centres undefined)	> 100 µM	> 100 µM		> 100 µM	> 100 µM							> 100 µM			> 100 µM		> 100 µM
COC(=O)[C@@H]1C2OC(C)(C)OC2CN1C(=O)OCc1ccccc1 (some centres undefined)	> 100 µM	> 100 µM		> 100 µM	> 100 µM							> 100 µM			> 100 µM		> 100 µM
O=C1Nc2cc([N+](=O)[O-])ccc2C(=O)N2CCC[C@@H]12	> 100 µM	> 100 µM		> 100 µM	> 100 µM							> 100 µM			> 100 µM		> 100 µM
COC(=O)c1c2c(c(-c3ccccc3)c3c1-c1nc(Cl)ccc1CC3)CCc1ccc(Cl)nc1-2	> 100 µM	> 100 µM		> 100 µM	> 100 µM	> 100 µM	> 100 µM	> 100 µM	> 100 µM	> 100 µM		> 100 µM	> 100 µM	> 100 µM	> 100 µM		
N#Cc1c(N)c2c(c(-c3ccccc3)c1-c1ccccc1)C(=O)N(NC(=O)c1ccccc1)C2=O	> 100 µM	> 100 µM		> 100 µM	> 100 µM							> 100 µM			> 100 µM		> 100 µM
COc1ccc(C2CC(=O)CC(c3ccc(OC)cc3)C23C(=O)NC(=S)NC3=O)cc1 (centres undefined)	> 100 µM	> 100 µM		> 100 µM	> 100 µM							> 100 µM			> 100 µM		> 100 µM
COc1ccc2c(c1)CC[C@@H]1[C@@H]2CC[C@]2(C)C(=O)/C(=C/c3ccncc3)C[C@@H]12	> 100 µM	86 µM		75.4 µM	> 100 µM							> 100 µM			> 100 µM		> 100 µM
